In brackets after ≈: the same amount, converted by molar mass. Read-outs that look alike come from different tables or passages of the source.
Experiments:
[1] = system: resistant green rice leafhopper (collected at Nakagawara); test: Test 3: Effect on Resistant Green Rice Leafhopper; format: in vivo, Nephotettix cincticeps Uhler; details: Nephotettix cincticeps, 24 h, read-out: Mortality (%) Green Rice Leafhopper Collected at Nakagawara
Procedure: (§1) To a mixture of 20 parts of the compound of the present invention and 20 parts of Sorpol SM-200 (registered trademark for the product supplied by Toho Chemical Industrial Co., Ltd.) was added 60 parts of xylol, and the mixture was sufficiently blended. The obtained emulsifiable concentrate was diluted at a predetermined concentration with distilled water, and the obtained dilution was used.
(§2) Seedlings (having 2 to 3 leaves) of paddy rice were hydroponically cultured in a pot having a diameter of 5 cm. A chemical dilution having a concentration of 100 or 20 ppm, prepared in the same manner as described in Test 1, was applied with a sprayer at a rate of 3 ml per pot. The treated seedlings were air-dried and covered with a metal net cylinder, and female adults of resistant green rice leafhopper (collected at Nakagawara) and sensitive green rice leafhopper (collected at Chigasaki) were set, respectively, free in the pot at a density of 10 adults per pot. After of 24 hours, the numbers of killed and living adults were counted and the mortality was calculated. The test was made on three pots and the average value was calculated.

[2] = system: sensitive green rice leafhopper (collected at Chigasaki); test: Test 3: Effect on Sensitive Green Rice Leafhopper; format: in vivo; details: Nephotettix cincticeps, female adults, 24 hours
Procedure: as §1, §2

Test 8: Fish Toxicity = format: in vivo; details: carp, water, carps, concentration at which 1/2 of the test fishes were killed, read-out: Fish Toxicity, TLm48
Procedure: A water tank having a width of 60 cm, a length of 30 cm and a height of 40 cm was filled with water, and 10 yearling carps having a body length of about 5 cm were set free in the tank and adapted to the environment in the tank. A test compound was applied so that the concentration in water was 10, 1, or 0.1 ppm. After 48 hours, the numbers of killed and living carps were counted and the influences on the fishes were examined.

[3] = Test 9: Toxicity Test (acute oral, mice); details: mouse, in vivo, po
Procedure: In the fish toxicity test, the test compound was dissolved in acetone to form a 1% solution, and a predetermined amount of the solution was used. In the mouse toxicity test, the test compound of the present invention was dissolved or suspended in corn oil, and a predetermined amount of the solution or suspension was used.
A predetermined amount of a solution or suspension of a test compound in corn oil was orally administered to male mice having a body weight of 19 to 23 g (0.2 ml per 10 g of the body weight). After 7 days, the number of killed mice was counted and the influences on the mice were examined.

[4] = system: third-instar larvae of diamond back moth; test: Test 4: Effect on Diamond Back Moth; format: in vivo; details: Plutella xylostella, 24 hours
Procedure: as §1
Cabbage leaves were spread in a plastic cup, and 10 third-instar larvae of diamond back moth were set free in the cup.
A chemical dilution having a concentration of 100 or 20 ppm, prepared in the same manner as described in Test 1, was applied from an applicator at a rate of 3 ml per cup.
After scattering of the chemical dilution, the cup was covered, and after 24 hours, the numbers of killed and living larvae were counted and the mortality was calculated. The test was made on three cups and the average value was calculated.

two-spotted spider mite = test: Test 6: Effect on Two-Spotted Spider mite adults; format: in vivo; details: Tetranychus urticae; 500 ppm; adults; 24 hours; read-out: Mortality (%)
Procedure: as §1
A kidney bean leaf disc perforated with a cork borer (15 mm in diameter) was placed on water-impreganated absorbent cotton (2 cm×2 cm), and 10 adults of two-spotted spider mite were set free. A chemical dilution having a concentration of 500 ppm was applied with an applicator in an amount of 3 ml.
The leaf disc-placed absorbent cotton was placed in a thermostat chamber maintained at 25° C. After 24 hours, the number of killed adults was counted and the mortality was calculated. The test was made on three leaf discs and the average value was calculated.

German cockroach = test: Test 7: Effect on German Cockroach; format: in vivo; details: Blattella germanica, male adults, 24 hours, agonized and killed; for mortality at 10 mg/m2: 10 mg/m^2; for mortality at 50 mg/m2: 50 mg/m^2
Procedure: The bottom face of a high Petri dish having a diameter of 9 cm and a height of 9 cm was treated with 50 or 10 mg/m^2 of a test compound and the dish was air-dried. In order to prevent the adults from escaping from the dish, the inner wall of the dish was treated with butter. Then, 10 male adults of German cockroach were set free in each dish, and the dish was placed in a thermostat chamber maintained at 25° C. After 24 hours, the number of agonized and killed adults was counted. The test was made on two dishes and the average value was calculated.

green peach aphids = test: Test 5: Effect on green peach Aphid; format: in vivo; details: Myzus persicae, 24 hours, mortality class, read-out: Insecticidal Activity
Procedure: as §1
Seedlings (having 3 to 4 leaves) of an eggplant grown on a pot were inoculated with green peach aphids and the insects were allowed to grow. The number of the insects was counted. A chemical dilution having a concentration of 100 ppm, prepared in the same manner as described in Test 1, was applied with a spray gun at a rate of 10 ml per pot. Then, the pot was placed in a glass green house. After 24 hours, the number of living insects was counted and the mortality was calculated.
The test was made on three pots, and the average value was calculated. In Table 6, mark "A" indicates a mortality higher than 95%, mark "B" indicates a mortality of 80 to 95%, mark "C" indicates a mortality of 50 to 80%, and mark "D" indicates a mortality lower than 50%.

[5] = system: Second-instar and fifth-instar larvae of tobacco cutworm; test: Test 2: Tobacco Cutworm Larva Dipping Test; format: in vivo
Procedure: as §1
A dilution having a chemical concentration of 100 or 20 ppm was prepared in the same manner as described in Test 1.
Second-instar and fifth-instar larvae of tobacco cutworm were dipped in the dilution for 5 seconds, and the excessive dilution was removed by a filter paper. Then, the larvae were set free in a plastic cup and an artificial diet was supplied thereto. The cup was allowed to stand still in a thermostat chamber maintained at 25° C. After 24 hours, the numbers of the killed and living larvae were counted and the mortality was calculated. The test was made on three cups and the result was expressed by an average value.

[6] = topical, 24 h, read-out: Mortality (%) Fifth-Instar Larvae

Row | Structure (SMILES) | mortality at 20 ppm [1] [%] | mortality at 100 ppm [1] [%] | mortality at 20 ppm [2] [%] | mortality at 100 ppm [2] [%] | LC50 at 48 h (Test 8: Fish Toxicity) [µg/mL] | LD50 at 168 h [3] [mg/kg] | mortality at 20 ppm [4] [%] | mortality at 100 ppm [4] [%] | mortality at 500 ppm (two-spotted spider mite) [%] | mortality at 10 mg/m2 (German cockroach) [%] | mortality at 50 mg/m2 (German cockroach) [%] | mortality at 100 ppm (green peach aphids) [%] | mortality at 20 ppm ([5]; 20 ppm, second-instar larvae, 24 hours, read-out: Mortality (%) Second-Instar Larvae) [%] | mortality at 100 ppm ([5]; 100 ppm, second-instar larvae, 24 hours, read-out: Mortality (%) Second-Instar Larvae) [%] | mortality at 20 ppm [5, 6] [%] | mortality at 100 ppm [5, 6] [%]
1 | COc1ccc(C(C)(C)COCc2ccc(F)c(Oc3ccc(F)cc3)c2)cc1 [Compound 5, 3-(4-Fluorophenoxy)-4-fluorobenzyl 2-(4-methoxyphenyl)-2-methylpropyl ether] | 100 | 100 | 100 | 100 | > 1 | > 500 |  |  |  |  |  |  |  |  |  | 
2 | CC(C)(COCc1cc(Oc2ccccc2)ccc1Cl)c1ccc(Cl)cc1 [Compound 7, 3-phenoxy-6-chlorobenzyl 2-(4-chlorophenyl)-2-methylpropyl ether] |  |  |  |  | > 10 | > 500 |  |  |  |  |  |  |  |  |  | 
3 | CC(C)(COCc1ccc(F)c(Oc2cccc(Cl)c2)c1)c1ccc(Cl)cc1 [Compound 9, 3-(3-Chlorophenoxy)-4-fluorobenzyl 2-(4-chlorophenyl)-2-methylpropyl ether] |  |  |  |  | > 1 | > 500 |  |  |  |  |  |  |  |  |  | 
4 | CC(C)(COCc1ccc(F)c(Oc2ccccc2)c1)c1ccc(Cl)c(Cl)c1 [Compound 14, 3-Phenoxy-4-fluorobenzyl 2-(3,4-dichlorophenyl)-2-methylpropyl ether] |  |  |  |  | > 1 |  | 100 | 100 | 100 |  |  |  |  |  |  | 
5 | COc1ccc(C(C)(C)COCc2ccc(F)c(Oc3ccccc3)c2)cc1 [Compound 16, 3-Phenoxy-4-fluorobenzyl 2-(4-methoxyphenyl)-2-methylpropyl ether] |  |  |  |  | > 0.5 |  | 80 | 100 |  | 90 | 100 |  |  |  |  | 
6 | Cc1cccc(C(C)(C)COCc2ccc(F)c(Oc3ccccc3)c2)c1 [Compound 19, 3-phenoxy-4-fluorobenzyl 2-(3-methylphenyl)-2-methylpropylether] |  |  |  |  | > 1 |  | 100 | 100 |  | 90 | 100 |  |  |  |  | 
7 | CCC(C)(COCc1ccc(F)c(Oc2ccccc2)c1)c1ccc(Cl)cc1 (stereo not shown) [Compound 20, 3-Phenoxy-4-fluorobenzyl 2-(4-chlorophenyl)-2-methylbutyl ether] | 100 | 100 | 100 | 100 | > 1 | > 500 | 100 | 100 | 100 | 100 | 100 |  |  |  |  | 
8 | CC(C)(COCc1ccc(F)c(Oc2ccc(F)cc2)c1)c1ccc(Cl)c(Cl)c1 [Compound 24, 3-(4-Fluorophenoxy)-4-fluorobenzyl 2-(3,4-dichlorophenyl)-2-methylpropyl ether] |  |  |  |  | > 1 |  | 90 | 100 |  |  |  |  |  |  |  | 
9 | CC(C)(COCc1cc(Oc2ccccc2)ccc1Br)c1ccc(Cl)cc1 [Compound 26, 3-Phenoxy-6-bromobenzyl 2-(4-chlorophenyl)-2-methylpropyl ether] |  |  |  |  | > 10 | > 500 |  |  |  |  |  |  |  |  |  | 
10 | Cc1ccc(C(C)(C)COCc2ccc(F)c(Oc3ccccc3)c2)cc1 [Compound 28, 3-phenoxy-4-fluorobenzyl 2-(4-methylphenyl)-2-methylpropyl ether] | 100 | 100 | 100 | 100 | > 1 |  | 100 | 100 |  | 100 | 100 | > 95 |  |  |  | 
11 | Cc1ccc(C(C)(C)COCc2cc(Oc3ccccc3)ccc2Cl)cc1 [Compound 31, 3-Phenoxy-6-chlorobenzyl 2-(4-methylphenyl)-2-methylpropyl ether] |  |  |  |  | > 10 | > 500 |  |  |  |  |  |  |  |  |  | 
12 | CCOc1ccc(C(C)(C)COCc2ccc(F)c(Oc3ccccc3)c2)cc1 [Compound 36, 3-Phenoxy-4-fluorobenzyl 2-(4-ethoxyphenyl)-2-methylpropyl ether] | 100 | 100 | 100 | 100 |  | > 500 | 100 | 100 |  | 100 | 100 | > 95 | 100 | 100 | 100 | 100
13 | CC(C)(COCc1ccc(F)c(Oc2ccccc2)c1)c1ccc(OC2CCCCC2)cc1 [Compound 46, 3-Phenoxy-4-fluorobenzyl 2-(4-cyclohexyloxyphenyl)-2-methylpropyl ether] | 100 | 100 | 100 | 100 | > 1 |  |  |  | 100 |  |  |  |  |  |  | 
14 | CCCCOc1ccc(C(C)(C)COCc2ccc(F)c(Oc3ccccc3)c2)cc1 [Compound 49] | 100 | 100 | 100 | 100 | ~0.5 (≈ 1.18 µM) |  |  |  |  | 100 | 100 | > 95 |  |  |  | 
15 | CCOc1ccc(C(C)(C)CSCc2ccc(F)c(Oc3ccccc3)c2)cc1Cl [Compound 51] |  |  |  |  |  | > 500 | 80 | 100 | 90 | 100 | 100 | > 95 |  |  |  | 
16 | CC(C)Sc1ccc(C(C)(C)COCc2ccc(F)c(Oc3ccccc3)c2)cc1 [Compound 54, 3-Phenoxy-4-fluorobenzyl 2-(4-isopropylthiophenyl)-2-methylpropyl ether] |  |  |  |  |  | > 500 | 100 | 100 | 100 | 100 | 100 | > 95 |  |  |  | 

Source: patent US4599362A, “2-aryl-ethyl ether derivatives and insecticidal and acaricidal agents containing said derivatives” (priority 1980, dated 1986)
